Source: patent US20260335320A1, “ANTI-VIRULENCE AGENTS AND METHODS FOR THE TREATMENT OF PATHOGENIC BACTERIUM” (priority 2023, published 2026)
Like-named read-outs stand apart in the source and are kept apart here.

Tests used:
[1] = system: Burkholderia FixLJ pathway (Fix-GFP reporter in B. multivorans strain VC7102); assay: Fix-GFP reporter activation screen (GFP fluorescence)
[2] = system: P. aeruginosa strain PA14; assay: P. aeruginosa-induced cytotoxicity of A549 cells (LDH release); details: 25 μM, 5.5 hours
[3] = system: Mycobacterium abscessus; assay: Intracellular invasion/survival in THP-1-derived macrophages; format: cell-based; details: 25 μM, 2 h plus 2 h with amikacin
Experimental: FIG. 9. BFA compounds reduce the virulence of M. abscessus. FIG. 9 provides a graph showing the results after THP-1-derived macrophages were infected with ~5×10^5 CFU/M. abscessus strain ATCC19977 and 25 μM of the indicated BFA or DMSO vehicle control for 2 hours. Cells were washed and treated with the same BFA and 500 μg/mL amikacin (to kill extracellular bacteria) for 2 hours.
To determine whether BFA compounds could inhibit the virulence of Mycobacterium abscessus THP-1-derived macrophages were used.

[4] = system: B. multivorans; assay: Invasion/intracellular survival in THP-1-derived macrophages; format: cell-based; details: 4 h
[5] = system: B. dolosa strain AU0158; assay: Invasion of and/or intracellular survival in THP-1-derived macrophages, antibiotic exclusion assay; format: cell-based, B. dolosa strain AU0158 (in human THP-1-derived macrophages)
[6] = system: B. thailandensis; assay: microbe, parasite or virus in culture; format: cell-based
[7] = system: B. cenocepacia; assay: Invasion/intracellular survival in THP-1-derived macrophages; format: cell-based; details: 4 h

NC(CO)C(=O)NNCc1ccc(O)c(O)c1O (centres unmarked) [Benserazide, benserazide]
GFP activity above the mean of the negative control (DMSO) [1]: more than 3 standard deviations

CCc1ccccc1N1CC(c2nc3ccccc3n2CCCCOc2ccccc2)CC1=O (centres unmarked) [BFA3, 1-(2-ETHYLPHENYL)-4-[1-(4-PHENOXYBUTYL)-1H-1,3-BENZODIAZOL-2-YL]PYRROLIDIN-2-ONE]
inhibition of PA14-induced cytotoxicity [2]: able to significantly reduce cytotoxicity
inhibition of intracellular invasion/survival of M. abscessus [3]: able to inhibit the intracellular invasion/survival within the macrophages

CCCCCCc1cc2cc(-c3nnc(-c4ccc(C)cc4)o3)c(=O)oc2cc1O [BFA1, 6-HEXYL-7-HYDROXY-3-[5-(4-METHYLPHENYL)-1,3,4-OXADIAZOL-2-YL]-2H-CHROMEN-2-ONE]
inhibition of intracellular invasion/survival of M. abscessus [3]: able to inhibit the intracellular invasion/survival within the macrophages
inhibition of invasion/survival of B. multivorans ([4]; 25 μM, THP-1-derived macrophages): inhibited the invasion/survival of all three additional Burkholderia species
minimal effective concentration ([4]; Burkholderia multivorans, Macrophage, read-out: dose inhibiting invasion/survival of B. multivorans): 6.25 µM
inhibition of invasion/survival of B. dolosa in macrophages [5]: inhibited virulence at a lower concentration and at a greater magnitude than the other BFA compounds
inhibition of invasion/survival of B. dolosa in macrophages ([5]; for BFA 2-8 at highest dose tested): ~ 75%
inhibition of invasion/survival of B. thailandensis ([6]; 25 μM, 4 h): able to inhibit the invasion/survival of B. cenocepacia (FIG. 3B) and B. thailandensis
minimal effective concentration ([6]; Burkholderia thailandensis, Macrophage, 2 h, read-out: dose inhibiting invasion/survival of B. thailandensis): 6.25 µM
inhibition of invasion/survival of B. cenocepacia ([7]; 25 μM): able to inhibit the invasion/survival of B. cenocepacia
dose needed to inhibit B. cenocepacia ([7]; dose range, compared with 6.25 μM): higher doses were needed to inhibit B. cenocepacia

COCCNC(=O)CCn1c(=O)c2cc(OC)c(OC)cc2n(CC(=O)Nc2ccccc2OC)c1=O [BFA2, 3-(6,7-Dimethoxy-1-{[(2-Methoxyphenyl)Carbamoyl]Methyl}-2,4-Dioxo-1,2,3,4-Tetrahydroquinazolin-3-Yl)-N-(2-Methoxyethyl)Propanamide]
inhibition of intracellular invasion/survival of M. abscessus [3]: able to inhibit the intracellular invasion/survival within the macrophages

Cc1ccccc1-n1c(/C=C/c2ccc(N(C)C)cc2)nc2ccccc2c1=O [BFA6, 2-[(1E)-2-[4-(DIMETHYLAMINO)PHENYL]ETHENYL]-3-(2-METHYLPHENYL)-3,4-DIHYDROQUINAZOLIN-4-ONE]
inhibition of PA14-induced cytotoxicity [2]: able to significantly reduce cytotoxicity
inhibition of invasion/survival of B. thailandensis [6]: able to inhibit the invasion/survival of B. thailandensis

CCCCN(C)CCCNC(=O)Cn1ncc2c3ccccc3n(Cc3cccc(Cl)c3)c2c1=O [BFA7, N-{3-[Butyl(Methyl)Amino]Propyl}-2-{5-[(3-Chlorophenyl)Methyl]-4-Oxo-3h,4h,5h-Pyridazino[4,5-B]Indol-3-Yl}Acetamide]
inhibition of PA14-induced cytotoxicity [2]: able to significantly reduce cytotoxicity
inhibition of intracellular invasion/survival of M. abscessus [3]: able to inhibit the intracellular invasion/survival within the macrophages
